Experimental data as given in PMC2828149 (Journal of ethnopharmacology, 2009).
≈ marks a conversion by molar mass, not a printed value. Where two headings read alike, the source gives them in different places.

Tests used:
in vitro = format: cell-based; conditions: human
[1] = tested on: ROS generation in Myelomonocytic HL-60 cells; assay: cell based antioxidant assay, inhibition of PMA-induced ROS generation; conditions: for Antioxidant IC50: inhibition of PMA-induced ROS generation in HL-60 cells; for IC50: Homo sapiens, HL-60, read-out: Antioxidant IC50
[2] = target: T1, recombinant human Monoamine Oxidase A (MAO-A) (Homo sapiens, UniProt P21397); assay: kynuramine deamination assay, recombinant human MAO-A; format: biochemical; conditions: for MAO-A inhibitory activity in words: pure compounds; for MAO-A activity more potent than MAO-B: ratio of MAO-B to MAO-A IC50
T1 sequence (P21397 1-527): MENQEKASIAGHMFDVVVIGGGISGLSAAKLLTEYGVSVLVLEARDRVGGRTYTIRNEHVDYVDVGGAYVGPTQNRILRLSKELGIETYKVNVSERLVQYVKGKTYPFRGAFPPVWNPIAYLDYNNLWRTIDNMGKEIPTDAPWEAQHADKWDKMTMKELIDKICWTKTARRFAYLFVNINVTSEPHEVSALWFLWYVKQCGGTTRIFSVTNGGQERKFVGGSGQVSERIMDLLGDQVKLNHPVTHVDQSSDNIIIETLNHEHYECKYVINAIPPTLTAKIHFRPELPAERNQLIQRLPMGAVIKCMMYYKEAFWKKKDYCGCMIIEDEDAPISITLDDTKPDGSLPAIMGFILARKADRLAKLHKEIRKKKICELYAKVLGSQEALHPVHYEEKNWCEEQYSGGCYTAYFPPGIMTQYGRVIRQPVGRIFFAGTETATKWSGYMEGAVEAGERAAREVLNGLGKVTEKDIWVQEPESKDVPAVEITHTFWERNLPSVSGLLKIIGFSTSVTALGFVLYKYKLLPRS

HL-60 cells = assay: in vitro; format: cell-based; conditions: HL-60 cells, 48 hours, XTT
[3] = target: T2, recombinant human Monoamine Oxidase B (MAO-B) (Homo sapiens, UniProt P27338); assay: biochemical; format: biochemical
T2 sequence (P27338 1-520): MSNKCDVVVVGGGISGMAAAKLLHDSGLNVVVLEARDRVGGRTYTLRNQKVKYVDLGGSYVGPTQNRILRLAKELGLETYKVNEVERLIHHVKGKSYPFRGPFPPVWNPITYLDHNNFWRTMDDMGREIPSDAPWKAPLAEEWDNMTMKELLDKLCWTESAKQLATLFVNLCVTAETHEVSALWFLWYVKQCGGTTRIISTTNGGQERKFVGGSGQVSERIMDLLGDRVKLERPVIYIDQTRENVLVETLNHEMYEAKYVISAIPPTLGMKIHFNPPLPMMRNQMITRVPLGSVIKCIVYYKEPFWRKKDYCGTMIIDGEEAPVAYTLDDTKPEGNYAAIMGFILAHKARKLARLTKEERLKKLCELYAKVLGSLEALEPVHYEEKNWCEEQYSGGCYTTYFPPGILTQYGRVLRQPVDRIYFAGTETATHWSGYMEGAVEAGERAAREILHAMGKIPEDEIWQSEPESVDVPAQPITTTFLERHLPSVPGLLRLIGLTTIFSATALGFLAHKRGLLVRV

rat striatal slices = conditions: ref Schwartz et al., 2003; cited from earlier work
MAO-A = conditions: liver homogenate; ref Schwartz et al., 2003; cited from earlier work
PC12 cells = conditions: ref Cho et al., 2008, Heo and Lee, 2005; cited from earlier work
[4] = read-out: MAO-B IC50, pure compounds and standards
[5] = read-out: MAO-A IC50, pure compounds and standards

## COc1cccc2c1C(=O)c1c(O)c3c(c(O)c1C2=O)C[C@@](O)(C(=O)CO)C[C@@H]3O[C@H]1C[C@H](N)[C@H](O)[C@H](C)O1 [Doxorubicin, reference compound]
In vitro
  IC50 at 48 h: 0.2 to 0.35 µg/mL (≈ 0.368 to 0.644 µM)

## O=C1O[C@H]([C@@H](O)CO)C(O)=C1O [Vitamin C, reference compound]
[1]
  Antioxidant IC50: 1.34 µg/mL

## Cc1[nH]ccc2c1[nH]c1cc(=O)ccc12 [compound 3, harmol]
[2]
  IC50: 0.018 µM
  MAO-A inhibitory activity in words: much weaker than 6 or 7

## COc1ccc2c3c([nH]c2c1)[C@@H](C)NCC3 [compound 5, tetrahydroharmine]
HL-60 cells
  Cytotoxicity IC50: NC (NC = No cytotoxicity to HL-60 cells up to 31.25 µg/mL)
[3]; [4]
  IC50: > 100 µM
[1]
  Antioxidant IC50: NA (NA = No antioxidant activity upto 31.25 µg/mL)
[2]
  MAO-A inhibitory activity in words: much weaker than 6 or 7
[2]; [5]
  IC50: 0.074 µM

## COc1ccc2c3c([nH]c2c1)C(C)=NCC3 [compound 6, harmaline]
In vitro
  IC50 at 48 h: 25 µg/mL (≈ 117 µM)
[3]
  IC50: 25 µM
[1]
  IC50: > 31.2 µg/mL
[2]
  MAO-A activity more potent than MAO-B: > 10,000 fold

## COc1ccc2c(c1)[nH]c1c(C)nccc12 [compound 7, harmine]
Rat striatal slices
  release of dopamine in words: increase
MAO-A
  inhibition of MAO-A in words: concentration-dependent inhibition
In vitro
  IC50 at 48 h: > 31.2 µg/mL
[3]
  IC50: 20 µM
[1]
  IC50: > 31.2 µg/mL
[2]
  MAO-A activity more potent than MAO-B: > 10,000 fold

## Oc1cc(O)c2c(c1)O[C@H](c1ccc(O)c(O)c1)[C@H](O)C2 [compound 8, (−)-2R,3R–Epicatechin]
In vitro
  IC50 at 48 h: 6.3 µg/mL (≈ 21.7 µM)
[3]
  IC50: 65 µM
PC12 cells
  protection from Aβ-induced neurotoxicity in words: protection
[1]
  IC50: < 0.13 µg/mL
[2]
  IC50: 51.7 µM

## Oc1cc(O)c2c(c1)O[C@H](c1ccc(O)c(O)c1)[C@H](O)[C@H]2c1c(O)cc(O)c2c1O[C@H](c1ccc(O)c(O)c1)[C@H](O)C2 [compound 9, (−)-2R,3R-epicatechin-4β,8-(−)-2R,3R-epicatechin]
HL-60 cells
  Cytotoxicity IC50: NC (NC = No cytotoxicity to HL-60 cells up to 31.25 µg/mL)
[3]; [4]
  IC50: 35 µM
[1]
  Antioxidant IC50: 0.57 µg/mL
[2]; [5]
  IC50: 8.5 µM

## Cc1c(C)c2c(c(C)c1O)CCC(C)(C(=O)O)O2 (stereo not drawn) [trolox, reference compound]
[1]
  IC50: 0.14 µg/mL (≈ 0.559 µM)

## banistenoside A [compound 1]
HL-60 cells
  Cytotoxicity IC50: >12.5 µg/mL
[3]; [4]
  IC50: > 100 µM
[1]
  Antioxidant IC50: NA (NA = No antioxidant activity upto 31.25 µg/mL)
[2]; [5]
  IC50: 4.9 µM

## banistenoside B [compound 2]
HL-60 cells
  Cytotoxicity IC50: 7.8 µg/mL
[3]; [4]
  IC50: > 100 µM
[2]; [5]
  IC50: 21.5 µM
